Results taken from patent US6270780A, “Cosmetic compositions containing resveratrol” (Chesebrough-Pond's USA Co., division of Conopco, priority 1998, dated 2001).
Read-outs that look alike come from different tables or passages of the source.

How the values were obtained:
Transglutaminase (TG-1) = assay: ELISA based TG-1 assay, differentiation of keratinocytes; assay type: cell-based, human
Excerpt: Methodology for Transglutaminase Measurement
During the process of terminal differentiation in the epidermis, a 15 nm thick layer of protein, known as the cornified envelope (CE) is formed on the inner surface of the cell periphery. The CE is composed of numerous distinct proteins which have been cross-linked together by the formation of N-((-glutamyl) lysine isodipeptide bonds catalyzed by the action of at least two different transglutaminases expressed in the epidermis. Transglutaminase (TG-1) is expressed in abundance in the differentiated layers of the epidermis, especially the granular layer, but is absent in the undifferentiated basal epidermis. Thus, TG-1 is a useful marker of epidermal keratinocyte differentiation with high TG-1 levels indicating a more differentiated state. An ELISA based TG-1 assay, using a TG-1 antibody, was used to assess the state of differentiation of the cultured keratinocytes in the examples that follow.
The level of TG-1 was measured as follows. Keratinocytes were obtained as described in Example 2. For the experiment, about 30,000 cells were plated into each well of 6 well plates and grown for five days, until the cells reach about 20-30% confluence. 2 ml/well of fresh KGM were added daily with 2 μl of 2-50 mM resveratrol in DMSO for 3 days. Control wells also received 2 μl of DMSO. After 3 days of treatment, cells were washed twice with PBS and placed in freezer for 2 hours. Cells were then thawed for 2 hours. DNA content of the cells were quantitated by using the DNA binding flurophore, bis-benzimidazole (Hoechst 33258) and measuring the specific fluorescence of the DNA-bound flurophore at 450 nm (excitation at 360 nm).
TG-1 levels of the cells in the wells were determined using the TG-1 specific monoclonal antibody (BC1) (first antibody) (obtained from Amersham Life Sciences) and using a peroxidase labeled rabbit antimouse IgG fragment (second antibody). The plates were blocked by 5% nonfat milk in TBS (Tris buffered saline, 0.01 M Tris, 0.150 M sodium chloride, pH 8.0) for one hour followed by 2 hour incubation with the first antibody (1:4,000 fold dilution) in 1% milk/TBS at room temperature. After rinsing the plates three times with 1% milk/TBS containing 0.05% Tween 20, the plates were incubated with 1:4000 dilution of the second antibody at room temperature for two hours. The plates were rinsed three times with 1% milk/TBS/Tween and three times with TBS. Color was developed by incubation with o-phenylene diamine and hydrogen peroxide. The absorbance was read at 492 nm on a Ultrospec 3000 spectrophotometer (Pharmacia Biotech) and TG-1 levels were calculated as Abs/DNA fluorescence. The mean±standard deviation of at least 3 separate wells were used for calculation and statistical analysis of the data. Values were expressed as absorbance for TG-1 per arbitrary unit of DNA fluorescence of triplicate wells±standard deviation. Results were also expressed as % of control.

B16 F1 cells = assay: Melanin production by B16 cells; assay type: cell-based
Experimental: B16 F1 cells were purchased from ATCC (Rockville, Md.) Subconfluent B16 cells were seeded in 96 well microtiter plates at a density of 5000 cells/well and cultured overnight in DMEM (Life Technologies, NY) containing 10% Fetal Bovine Serum, 1% penicillin/streptomycin without phenol red) at 37° C. under 5% CO2. After 24 hours, the media was replaced with fresh media containing the treatments. Cells were incubated for 72 hours at which time melanin was visible in the control treatment. Next, the melanin containing media from each well was transferred to a clean 96 well plate and quantified by reading the absorbance at 530 nm using a microplate Spectrophotometer.
For each treatment, the average of four replicate readings was calculated and expressed as percent of the average for the untreated control.
The lower the % melanin value (with a viability value of >50%), the better the skin lightening potential.

SMILES: Oc1ccc(/C=C/c2cc(O)cc(O)c2)cc1 [Resveratrol, 3,4'5-stilbenetriol]
- transglutaminase expression of keratinocytes vs control (Transglutaminase (TG-1); Experiment 1, 10 μM): not significantly different from control
- TG-1 levels/μg DNA (Transglutaminase (TG-1); Experiment 1, 10 μM, 3 days): 8.49 ± 1.77 /μg DNA
- TG-1 levels/μg DNA (Transglutaminase (TG-1); Experiment 1, 25 μM, 3 days): 10.92 ± 2.29 /μg DNA
- TG-1 levels/μg DNA (Transglutaminase (TG-1); Experiment 1, 50 μM, 3 days): 22.2 ± 1.50 /μg DNA
- TG-1 levels/μg DNA (Transglutaminase (TG-1); Experiment 2, 2 μM, 3 days): 3.42 ± 0.42 /μg DNA
- TG-1 levels/μg DNA (Transglutaminase (TG-1); Experiment 2, 5 μM, 3 days): 3.51 ± 0.41 /μg DNA
- TG-1 levels/μg DNA (Transglutaminase (TG-1); Experiment 2, 10 μM, 3 days): 3.61 ± 0.17 /μg DNA
- TG-1 levels/μg DNA (Transglutaminase (TG-1); Experiment 2, 25 μM, 3 days): 4.69 ± 0.21 /μg DNA
- TG-1 levels/μg DNA (Transglutaminase (TG-1); Experiment 2, 50 μM, 3 days): 4.65 ± 0.46 /μg DNA
- keratinocyte differentiation (Transglutaminase (TG-1); Experiment 2, all concentrations of 2 μM and higher): significantly increased keratinocyte differentiation
- activity at 10 µM (Transglutaminase (TG-1); Homo sapiens, Keratinocyte, 72 h, Experiment 1, 10 μM, 3 days, read-out: TG-1 levels, % of control): 126%
- activity at 25 µM (Transglutaminase (TG-1); Homo sapiens, Keratinocyte, 72 h, Experiment 1, 25 μM, 3 days, read-out: TG-1 levels, % of control): 162%
- activity at 50 µM (Transglutaminase (TG-1); Homo sapiens, Keratinocyte, 72 h, Experiment 1, 50 μM, 3 days, read-out: TG-1 levels, % of control): 329%
- activity at 2 µM (Transglutaminase (TG-1); Homo sapiens, Keratinocyte, 72 h, Experiment 2, 2 μM, 3 days, read-out: TG-1 levels, % of control): 179%
- activity at 5 µM (Transglutaminase (TG-1); Homo sapiens, Keratinocyte, 72 h, Experiment 2, 5 μM, 3 days, read-out: TG-1 levels, % of control): 184%
- activity at 10 µM (Transglutaminase (TG-1); Homo sapiens, Keratinocyte, 72 h, Experiment 2, 10 μM, 3 days, read-out: TG-1 levels, % of control): 189%
- activity at 25 µM (Transglutaminase (TG-1); Homo sapiens, Keratinocyte, 72 h, Experiment 2, 25 μM, 3 days, read-out: TG-1 levels, % of control): 246%
- activity at 50 µM (Transglutaminase (TG-1); Homo sapiens, Keratinocyte, 72 h, Experiment 2, 50 μM, 3 days, read-out: TG-1 levels, % of control): 243%
- transglutaminase expression of keratinocytes (Transglutaminase (TG-1); all other concentrations): significantly increased transglutaminase expression of keratinocytes
- activity at 10 µM (B16 F1 cells; Mus musculus, B16-F1, 10 μM, 72 hours): 80%
- activity at 25 µM (B16 F1 cells; Mus musculus, B16-F1, 25 μM, 72 hours): 4%
- activity at 50 µM (B16 F1 cells; Mus musculus, B16-F1, 50 μM, 72 hours): 3.9%
- activity at 100 µM (B16 F1 cells; Mus musculus, B16-F1, 100 μM, 72 hours): 6.6%
- melanin production by skin cells (B16 F1 cells; all concentrations tested where viability was greater than 50%): inhibited melanin production by skin cells
